In US10604512B2, “3-(1H-indol-2-yl)-1H-indazoles and therapeutic uses thereof” (Samumed, LLC, priority 2015, dated 2020):

Assays:
Type in all cases: cell-based
[1] = system: primary human mesenchymal stem cells (hMSCs); test: Induction of chondrogenesis in primary human mesenchymal stem cells (nodule imaging, Rhodamine B / Nile Red); details: for EC50: concentration required to induce 50% levels of chondrogenesis vs TGF-β3 positive control, read-out: Conc (nM) of 50% TGF-β3 activity; for Emax: maximum chondrogenesis activity relative to TGF-β3 (10 ng/mL) positive control, read-out: Max. Activity as % TGF-β3 activity
Method: Representative compounds were screened using primary human mesenchymal stem cells (hMSCs) to determine their ability to induce chondrogenesis (process by which cartilage is developed).
Primary human mesenchymal stem cells (hMSCs) were purchased from Lonza (Walkersville, Md.) and expanded in Mesenchymal Stem Cell Growth Media (Lonza). Cells between passage 3 and 6 were used for the experiments.
Each compound was dissolved in DMSO as a 10 mM stock and used to prepare compound source plates. For the 96 well assay, serial dilution (1:3, 6-point dose-response curves from 2700 nM to 10 nM) and compound transfer was performed using the ECHO 550 (Labcyte, Sunnyvale, Calif.) into 96-well clear bottom assay plates (Greiner Bio-One) with appropriate DMSO backfill for a final DMSO concentration of 0.03%. hMSCs were plated at 20,000 cells/well in 250 μL/well Incomplete Chondrogenic Induction Medium (Lonza; DMEM, dexamethasone, ascorbate, insulin-transferrin-selenium [ITS supplement], gentamycin-amphotericin [GA-1000], sodium pyruvate, proline and L-glutamine). TGF-β3 (10 ng/mL) was used as a positive control for differentiation while negative control wells were treated with 75 nL DMSO for normalization and calculating EC50 values. For the 384 well assay, serial dilution (1:3, 8-point dose-response curves from 5000 nM to 2.2 nM) and compound transfer was performed using the ECHO 550 (Labcyte, Sunnyvale, Calif.) into 384-well clear bottom assay plates (Greiner Bio-One) with appropriate DMSO backfill for a final DMSO concentration of 0.03%. hMSCs were plated at 8,000 cells/well in 80 μL/well Incomplete Chondrogenic Induction Medium (Lonza; DMEM, dexamethasone, ascorbate, insulin-transferrin-selenium [ITS supplement], gentamycin-amphotericin [GA-1000], sodium pyruvate, proline and L-glutamine). TGF-β3 (10 ng/mL) was used as a positive control for differentiation while negative control wells were treated with 25 nL DMSO for normalization and calculating EC50 values. Cells were incubated at 37° C. and 5% CO2 for 6 days. To image chondrogenic nodules, the cells were fixed using 4% formaldehyde (Electron Microscopy Sciences), and stained with 2 μg/mL Rhodamine B (Sigma-Aldrich) and 20 μM Nile Red (Sigma-Aldrich) [Johnson K., et. al, A Stem CellBased Approach to Cartilage Repair, Science, (2012), 336(6082), 717-721]. The nodules imaged (25 images per well for 96 well plates and 9 images per well for 384 well plates at 10× magnification) by excitation at 531 nm and emission at 625 nm and quantified using the CellInsight CX5 (Thermo Scientific). Area of nodules in each well was normalized to the average of 3 DMSO treated wells on the same plate using Excel (Microsoft Inc.). The normalized averages (fold change over DMSO) of 2 or 3 replicate wells for each compound concentration were calculated. Due to solubility limitations of some of the compounds, curve fitting was incomplete leading to inaccurate EC50 determinations.
Using TGF-β3 as a positive control, the concentration of representative compounds required to induce 50% levels of chondrogenesis is reported. In addition, the maximum activity of each compound and the respective dose that each compound reached maximum chondrogenesis activity is reported.

[2] = system: IL-6; test: Inhibition of IL-6 in LPS-stimulated THP-1 human monocyte cells (HTRF); details: IL-6 inhibition, LPS-stimulated THP-1 cells, HTRF
In short: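 THP-1 cells serum-reduced (1% FBS, 24 h), then 5000 cells/well preincubated 2 h with compound (10-point 1:3 series from 10 μM, 0.1% DMSO) before 500 ng/mL LPS for 22 h at 37 °C. Secreted IL-6 quantified by HTRF 665/620 ratio; DMSO-normalised duplicates fitted to four-parameter EC50; above 10 μM, % inhibition at 10 μM given.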

[3] = system: SW480 colon cancer cells; test: Cell viability assay (CellTiter-Blue) in SW480 colon cancer cells; details: Homo sapiens, 96 h, four days; for EC50: CellTiter-Blue; for inhibition at 10 µM: given where EC50 >10 μM, read-out: percent inhibition at 10 μM
In short: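 SW480 colon cancer cells (~2×10^3/well) exposed to 8-point 1:3 dilutions from 10 μM to 0.0045 μM for four days at 37 °C/5% CO2. Viability read by resazurin (CellTiter-Blue) fluorescence after ~3 h, Ex 560/Em 590 nm. EC50 from non-linear regression; percent inhibition at 10 μM given when EC50 >10 μM.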

Structure (SMILES)	EC50 [1] [nM]	Emax [1] [%]	EC50 [2] [nM]	EC50 [3] [nM]	inhibition at 10 µM [3] [%]
CC(C)C(=O)Nc1cncc(-c2ccc3[nH]nc(-c4cc5c(N6CCN(C)CC6)cccc5[nH]4)c3c2)c1 [Compound 233, N-(5-(3-(4-(4-Methylpiperazin-1-yl)-1H-indol-2-yl)-1H-indazol-5-yl)pyridin-3-yl)isobutyramide]	100	196	589	3160	–
CN1CCN(c2cccc3[nH]c(-c4n[nH]c5ccc(-c6cncc(CN7CCCCC7)c6)cc45)cc23)CC1 [Compound 239, 3-(4-(4-Methylpiperazin-1-yl)-1H-indol-2-yl)-5-(5-(piperidin-1-ylmethyl)pyridin-3-yl)-1H-indazole]	100	198	1150	> 10000	51.7
CN1CCN(c2cccc3[nH]c(-c4n[nH]c5ccc(-c6cncc(NC(=O)C7CCCC7)c6)cc45)cc23)CC1 [Compound 246, N-(5-(3-(4-(4-Methylpiperazin-1-yl)-1H-indol-2-yl)-1H-indazol-5-yl)pyridin-3-yl)cyclopentanecarboxamide]	100	185	186	2990	–
CN1CCN(c2cccc3[nH]c(-c4n[nH]c5ccc(-c6cncnc6)cc45)cc23)CC1 [Compound 251, 3-(4-(4-Methylpiperazin-1-yl)-1H-indol-2-yl)-5-(pyrimidin-5-yl)-1H-indazole]	100	165	152	3280	–
c1cncc(-c2ccc3[nH]nc(-c4cc5ccccc5[nH]4)c3c2)c1 [Compound 256, 3-(1H-Indol-2-yl)-5-(pyridin-3-yl)-1H-indazole]	10	162	10	> 10000	4.7
CCNCc1cncc(-c2ccc3[nH]nc(-c4cc5ccccc5[nH]4)c3c2)c1 [Compound 258, N-((5-(3-(1H-Indol-2-yl)-1H-indazol-5-yl)pyridin-3-yl)methyl)ethanamine]	10	532	161	489	–
c1ccc2[nH]c(-c3n[nH]c4ccc(-c5cncc(CN6CCCC6)c5)cc34)cc2c1 [Compound 266, 3-(1H-Indol-2-yl)-5-(5-(pyrrolidin-1-ylmethyl)pyridin-3-yl)-1H-indazole]	100	217	233	1040	–
CN(C)Cc1cncc(-c2ccc3[nH]nc(-c4cc5c(-c6cccs6)cccc5[nH]4)c3c2)c1 [Compound 349, N,N-Dimethyl-1-(5-(3-(4-(thiophen-2-yl)-1H-indol-2-yl)-1H-indazol-5-yl)pyridin-3-yl)methanamine]	30	181	233	841	–
CS(=O)(=O)NCc1cc(F)cc(-c2cccc3[nH]c(-c4n[nH]c5ccc(-c6cncnc6)cc45)cc23)c1 [Compound 503, N-(3-Fluoro-5-(2-(5-(pyrimidin-5-yl)-1H-indazol-3-yl)-1H-indol-4-yl)benzyl) methanesulfonamide]	10	194	910	3170	–
c1ccc2[nH]c(-c3n[nH]c4ccc(-c5cncc(OCCN6CCCC6)c5)cc34)cc2c1 [Compound 686, 3-(1H-Indol-2-yl)-5-(5-(2-(pyrrolidin-1-yl)ethoxy)pyridin-3-yl)-1H-indazole]	10	213	208	574	–
